The values below come from EP0880540B1, “17-BETA-CYCLOPROPYL(AMINO/OXY) 4-AZA STEROIDS AS ACTIVE INHIBITORS OF TESTOSTERONE 5-ALPHA-REDUCTASE AND C17-20-LYASE” (Aventis Pharmaceuticals Inc., priority 1996, dated 1997).

The target of the test is T1, nude mouse testicular C17,20 lyase (Mus musculus, UniProt P27786).
T1 construct: from tissue; host or cells: testes of male athymic nude mice (Harlan Laboratories), 10,000 x g supernatant of homogenate
T1 sequence (P27786 1-507): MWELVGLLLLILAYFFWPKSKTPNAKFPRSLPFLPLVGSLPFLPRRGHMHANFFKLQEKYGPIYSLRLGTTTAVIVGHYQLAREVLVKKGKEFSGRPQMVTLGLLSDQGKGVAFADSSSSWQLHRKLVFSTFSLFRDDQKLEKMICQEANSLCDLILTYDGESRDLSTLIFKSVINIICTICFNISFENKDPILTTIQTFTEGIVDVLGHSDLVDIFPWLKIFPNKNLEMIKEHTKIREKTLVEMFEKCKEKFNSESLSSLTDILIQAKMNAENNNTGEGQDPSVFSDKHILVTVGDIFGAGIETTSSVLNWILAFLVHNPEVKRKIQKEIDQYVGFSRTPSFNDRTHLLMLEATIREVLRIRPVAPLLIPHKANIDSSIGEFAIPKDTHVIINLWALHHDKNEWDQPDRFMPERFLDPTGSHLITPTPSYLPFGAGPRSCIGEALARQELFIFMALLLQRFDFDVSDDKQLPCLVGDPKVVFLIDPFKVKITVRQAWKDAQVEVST
Description: Ex vivo inhibition of C17,20 lyase in nude mouse testes after oral dosing. Set-up: species or system male athymic nude mice. The conditions noted are these: 4 hours after oral dosing. As to the method: Ex vivo inhibition of C17,20 lyase: MDL 103,432 was tested for ex vivo inhibition of rat and nude mouse testes lyase. Male Copenhagen rats and male athymic nude mice obtained from Harlan Laboratories, Indianapolis, IN, were divided into groups of 5 to 6 based on weight. Average weight was 100-140 g each for rats and 18-35 g each for the mice. Prior to oral dosing, animals were fasted overnight. Test compound was prepared by micronization in a lecithin vehicle using a glass Teflon® pestle-type homogenizer. The compound was brought to volume using lecithin so as to administer 0.5 mL per 100 g animal. Rats and nude mice were given vehicle only (controls) or vehicle plus test compounds peros. Rats were also given the compound in lecithin or lecithin alone subcutaneously. Each group consisted of 5-6 animals. At a specified time after dosing, the animals were anesthetized with CO2 gas, sacrificed by cervical dislocation, testes were excised, capsules were removed, and the tissue was weighed. […] Assays were terminated, extracted and analyzed as described above except that carrier steroids were 17α-hydroxyprogesterone, androst-4-ene-dione, and testosterone. […] Activity of test compound was expressed as percent inhibition relative to the control and was the mean of each group of treated animals.

Structures are written as SMILES.

On to `CC12CCC3C(CC[C@H]4NC(=O)CCC34C)C1CC[C@@H]2OC1CC1` (stereo partly drawn) [MDL 103,432, 17β-Cyclopropyloxy-4-aza-5α-androstan-3-one], for which the inhibition at 30 mg/kg (30 mg/kg) amounted to 88%. Testing at 100 mg/kg (100 mg/kg) gave an inhibition of 96%.
